The values below come from patent US9457084B2, “Use of EP4 receptor antagonists in the treatment of IL-23 mediated diseases” (RAQUALIA PHARMA INC., priority 2010, dated 2016).

For assay [1] the following is noted: NPL 26; cited from earlier work.
For assay [2] the following is noted: NPL 27; cited from earlier work.
Assay [3] concerns mouse CD11c (+) cells. Description: IL-23 production in CD11c dendritic cells (ELISA). It is filed as cell-based. Conditions: 10, 100, or 1000 nM; antibody to CD40, 36 hours; supernatant ELISA. As for the experimental part: CD11c dendritic cells (DCs) from the spleens of C57BL/6 mice were purified by auto-magnetic activated cell sorting. The DCs were cultured in a 96-well plate at a density of 6×10^5 cells per well in the presence of 10 microgram/mL antibody to CD40 for 36 hours. Compounds listed in FIG. 1, that is, Compound A (3-[2-(4-{2-ethyl-4,6-dimethyl-1H-imidazo[4,5-c]pyridin-1-yl}phenyl)ethyl]-1-[(4-methylbenzene)sulfonyl]urea) and Compound B (4-[(1S)-1-({[5-chloro-2-(3-fluorophenoxy)pyridin-3-yl]carbonyl}amino)ethyl]benzoic acid) were added at the beginning of incubation at a dose of 10, 100, or 1000 nM. The supernatant collected at the end of culture was measured by ELISA for IL-23.
(An ELISA detects its analyte on a solid surface through an enzyme-linked reagent.)

The test system of assay [4] is Balb/c male mice. Description: DSS model (DSS-induced colitis). It counts as in vivo, mouse. Conditions: 2.5% DSS for 7 days; 3 or 30 mg/kg orally for 7 days; evaluated day 11. As for the experimental part:
Eight weeks-old Balb/c male mice were used in the study. Mice were allocated to four groups; normal control group, disease control group receiving vehicle, and two disease groups receiving different dose of Compound B. Colitis was induced by drinking 2.5% DSS (average molecular weight of 5,000) dissolved in water for 7 days. Compound B in 0.5% methyl cellulose solution (at a dose of 3 or 30 mg/kg) was orally administered for 7 days. The mice were sacrificed on day 11 and the colon was harvested for the evaluation. Colon length, colon weight, and histology score were analyzed. Histology score was determined as follows; 0=no signs of damage; 1=moderate inflammation; 2=severe inflammation.

Assay [5] relates to C57BL/6 male mice. Description: Allergic contact dermatitis and psoriasis model (picryl chloride, ear swelling). It counts as in vivo, mouse. As for the experimental part: Eight weeks-old C57BL/6 male mice were used in the study. Mice were sensitized with 0.1 mL of 7% picryl chloride-ethanol on shaved abdominal skin on day O, Seven days later, the mice were treated with 0.02 mL of 1% picryl chloride-olive oil on both sides of the ear by painting. Ear thickness was measured using a thickness gage before the treatment, and 24 and 48 hours after the treatment, and the difference of ear thickness was used as a parameter of ear swelling. Compound B suspended in 0.5% methyl cellulose solution (at a dose of 3 or 30 mg/kg) was administered orally either during the entire experimental period (days 0 to 11) or elicitation (E) period (days 8 to 10).

In assay [6] the test system is mice. The following applies: animal models; NPL 19 / NPL 21; cited from earlier work.
Assay [7] relates to mice. The following applies: cited from earlier work.
Assay [8] has as its system rat. The following applies: cited from earlier work.

Entries after “also recorded” stand apart in the source; their conditions may differ.

For the molecule `COc1ccc2c(c1)c(CC(=O)O)c(C)n2C(=O)c1ccc(Cl)cc1` [indomethacin], the “effect on DSS-induced colitis” value in assay [1] is “aggravated”. Further, in assay [2], the “effect on allergic contact dermatitis” value was “worse”.

`C[C@H](NC(=O)c1cc(Cl)cnc1Oc1cccc(F)c1)c1ccc(C(=O)O)cc1` [Compound B, 4-[(1S)-1-({[5-chloro-2-(3-fluorophenoxy)pyridin-3-yl]carbonyl}amino)ethyl]benzoic acid]: the “inhibition of IL-23 production” value in assay [3] is recorded as “dose-dependent inhibition”. Moreover, in assay [4], the colitis score entry is “restored” and the colon weight/length entry is “restored”. Besides, in assay [5] (3 or 30 mg/kg orally during elicitation (E) period (days 8 to 10)), the ear swelling result is given as “significantly reduced”. The ear swelling result in assay [5] (3 or 30 mg/kg orally during entire experimental period (days 0 to 11)) is “significantly reduced”. The “maximum efficacy on ear swelling compared with prednisolone (Pred)” value in assay [5] (mouse, in vivo) is listed as “equal to that of prednisolone”.

Take `CCc1nc2c(C)nc(C)cc2n1-c1ccc(CCNC(=O)NS(=O)(=O)c2ccc(C)cc2)cc1` [Compound A, 3-[2-(4-{2-ethyl-4,6-dimethyl-1H-imidazo[4,5-c]pyridin-1-yl}phenyl)ethyl]-1-[(4-methylbenzene)sulfonyl]urea]: the “inhibition of IL-23 production” value in assay [3] was “dose-dependent inhibition”. Also, in assay [4], the colitis score entry is recorded as “Dose-dependent reduction” and the colon weight/length entry is “Dose-dependent reduction”. In addition, in assay [5] (treatment period not stated), the ear swelling result is “dose-dependent reduction”.

In the case of `CC(C(=O)Nc1cc(C#N)ccc1CCCC(=O)O)c1ccc(F)c2ccccc12` (centres unmarked) [AE3-208], the “effect on MS” value in assay [6] is “treat MS; also recorded: ameliorate”. The “effect on allergic contact dermatitis” value in assay [7] (animal models, NPL 19) was “ameliorate”. In assay [7] (prophylactic (sensitization), NPL 25), the “efficacy on the development (sensitization) of allergic contact dermatitis” value is given as “potent inhibitory efficacy”. Also, in assay [7] (therapeutic treatment, NPL 25), the “efficacy by therapeutic treatment in allergic contact dermatitis” value was “failed to show the efficacy”. The “effect on DSS-induced colitis” value in assay [8] was “aggravated”.

For `COc1ccc(-c2ccc(OCc3cc(C(=O)NS(=O)(=O)c4ccccc4C)oc3C)cc2)nc1` [Compound D, 4-((4-(5-methoxypyridin-2-yl)phenoxy)methyl)-5-methyl-N-(o-tolylsulfonyl)furan-2-carboxamide], in assay [4], the colitis score entry is “Dose-dependent reduction” and the colon weight/length result is given as “Dose-dependent reduction”. For the same molecule, the ear swelling result in assay [5] (treatment period not stated) is listed as “dose-dependent reduction”.

`Cc1sc(C)c(C(=O)NC2(c3ccc(C(=O)O)cc3)CC2)c1Cc1ccc(C(F)(F)F)cc1` [Compound E, 4-{1-[({2,5-dimethyl-4-[4-(trifluoromethyl)benzyl]-3-thienyl}carbonyl)amino]cyclopropyl}benzoic acid]: in assay [4], the colitis score entry is reported as “Dose-dependent reduction” and the colon weight/length result is “Dose-dependent reduction”. Also, in assay [5] (treatment period not stated), the ear swelling result is given as “dose-dependent reduction”.

Consider `C[C@H](NC(=O)c1cc(Cl)cnc1COc1cccc(Cl)c1)c1ccc(C(=O)O)cc1` [Compound C, 4-{(1S)-1-[({5-chloro-2-[(3-chlorophenoxy)methyl]pyridin-3-yl}carbonyl)amino]ethyl}benzoic acid], for which, in assay [4], the colitis score entry is recorded as “Dose-dependent reduction” and the colon weight/length entry is listed as “Dose-dependent reduction”. In assay [5] (treatment period not stated), the ear swelling result is reported as “dose-dependent reduction”.
